Assay [1] has as its target human mGluR2 (Homo sapiens, UniProt Q14416). The experiment in a line: Multispan Allosteric Profiling panel, Ca2+ (Gqi5), control experiment. The format is cell-based. The settings on record: increasing concentrations of SAR218645; Gqi5 cells.
The target of assay [2] is T1, human mGluR6 (Homo sapiens, UniProt O15303).
T1 construct: host or cells: HEK293 co-expressing Gqi5
The experiment in a line: Multispan Allosteric Profiling panel, Ca2+ (Gqi5). The format is cell-based.

Assay [3] addresses T2, human mGluR7 (Homo sapiens, UniProt Q14831).
T2 construct: host or cells: HEK293 co-expressing Gqi5
As to the kind of experiment: Multispan Allosteric Profiling panel, Ca2+ (Gqi5). The format is cell-based.

For assay [4], the system named is approximately 180 different receptors, ion channels, enzymes, transporters and kinases. As to the kind of experiment: In vitro selectivity profile (CEREP and internal panels). The format is binding. The settings on record: up to 10 μM. As to the method:
The effect of SAR218645 on approximately 180 different receptors, ion channels, enzymes, transporters and kinases (see Supplementary Material Table S1) was evaluated at a contract research organization (CEREP, Celle L’Evescault, France) using established protocols or through internal studies.

The subject of assay [5] is Swiss mice. As to the kind of experiment: Novel object recognition task, MK-801-induced deficit. The format is in vivo. The text has this:
The test apparatus was based on that described by Ennaceur and Delacour[37] in rats and adapted for use in mice[38]. The apparatus consisted of a uniformly lit (20 lux) PVC enclosure (52 L × 52 W × 40 H cm) with a video camera positioned 160 cm above the bench. The objects to be discriminated were a metal triangle (3.3 cm height, 5.5 cm wide) and a plastic piece of construction game (3 cm height and 3 cm wide). The observer was located in an adjacent room fitted with a video monitoring system. The experiment consisted of 3 sessions. During the first session, male Swiss mice (25–30 g) were allowed to become familiar with the experimental environment for 5 min (S1). Time spent active (animal moving around with or without sniffing and exploration) was measured. […] Times spent exploring the familiar and novel objects were recorded. […] Data (time exploring each of the two objects, in seconds) were analyzed with a two-way ANOVA, with the treatment and the object as the between factors, followed by a Winer analysis for comparing the time spent exploring the familiar versus the novel object for each treatment. […]

Molecules are shown by their SMILES.

T1 sequence (O15303 25-877): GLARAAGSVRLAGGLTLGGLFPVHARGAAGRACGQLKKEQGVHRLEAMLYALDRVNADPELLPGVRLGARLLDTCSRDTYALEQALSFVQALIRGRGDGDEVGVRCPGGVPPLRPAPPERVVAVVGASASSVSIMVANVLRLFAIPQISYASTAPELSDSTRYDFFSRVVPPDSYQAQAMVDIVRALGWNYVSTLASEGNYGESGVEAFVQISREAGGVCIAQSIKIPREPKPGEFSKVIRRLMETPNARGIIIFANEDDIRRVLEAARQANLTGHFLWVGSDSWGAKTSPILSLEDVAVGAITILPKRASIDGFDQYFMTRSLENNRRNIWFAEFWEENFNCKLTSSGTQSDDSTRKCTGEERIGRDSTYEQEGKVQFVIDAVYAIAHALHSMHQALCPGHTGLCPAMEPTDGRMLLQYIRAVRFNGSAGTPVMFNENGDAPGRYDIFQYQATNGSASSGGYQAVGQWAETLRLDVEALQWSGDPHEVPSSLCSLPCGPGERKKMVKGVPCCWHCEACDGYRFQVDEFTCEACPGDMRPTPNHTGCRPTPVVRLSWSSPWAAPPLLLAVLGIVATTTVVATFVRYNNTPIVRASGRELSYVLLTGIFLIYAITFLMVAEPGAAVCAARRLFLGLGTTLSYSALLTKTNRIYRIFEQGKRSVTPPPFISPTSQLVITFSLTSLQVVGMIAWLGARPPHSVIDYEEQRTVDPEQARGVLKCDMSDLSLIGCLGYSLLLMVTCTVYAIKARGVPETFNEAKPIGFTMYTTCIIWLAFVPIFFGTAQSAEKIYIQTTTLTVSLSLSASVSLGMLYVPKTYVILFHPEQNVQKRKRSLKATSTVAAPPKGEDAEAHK
T2 sequence (Q14831 35-915): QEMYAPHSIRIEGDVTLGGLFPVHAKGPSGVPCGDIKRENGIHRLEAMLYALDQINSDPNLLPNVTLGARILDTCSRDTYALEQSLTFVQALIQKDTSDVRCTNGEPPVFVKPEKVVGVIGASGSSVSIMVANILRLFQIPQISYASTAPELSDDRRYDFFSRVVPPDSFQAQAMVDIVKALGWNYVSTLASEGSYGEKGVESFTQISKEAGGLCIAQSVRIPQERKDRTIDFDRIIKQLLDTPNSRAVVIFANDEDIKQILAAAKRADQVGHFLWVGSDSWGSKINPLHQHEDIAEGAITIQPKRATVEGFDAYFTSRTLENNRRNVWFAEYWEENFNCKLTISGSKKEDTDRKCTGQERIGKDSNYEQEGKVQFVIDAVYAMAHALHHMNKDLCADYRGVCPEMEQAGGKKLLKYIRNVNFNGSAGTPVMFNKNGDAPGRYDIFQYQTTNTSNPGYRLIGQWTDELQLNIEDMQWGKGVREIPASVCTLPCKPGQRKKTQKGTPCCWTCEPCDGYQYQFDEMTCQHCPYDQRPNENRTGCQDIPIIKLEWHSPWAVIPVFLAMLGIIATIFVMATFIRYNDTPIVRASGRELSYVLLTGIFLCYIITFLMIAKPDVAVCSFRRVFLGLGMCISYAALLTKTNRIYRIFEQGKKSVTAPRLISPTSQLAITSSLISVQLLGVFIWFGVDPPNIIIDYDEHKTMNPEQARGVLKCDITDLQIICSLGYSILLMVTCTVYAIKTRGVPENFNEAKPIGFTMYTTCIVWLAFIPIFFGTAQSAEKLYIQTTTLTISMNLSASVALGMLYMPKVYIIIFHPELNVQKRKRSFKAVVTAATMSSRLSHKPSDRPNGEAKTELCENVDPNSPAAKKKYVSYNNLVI
Chain of human mGluR2 (Q14416 19-872): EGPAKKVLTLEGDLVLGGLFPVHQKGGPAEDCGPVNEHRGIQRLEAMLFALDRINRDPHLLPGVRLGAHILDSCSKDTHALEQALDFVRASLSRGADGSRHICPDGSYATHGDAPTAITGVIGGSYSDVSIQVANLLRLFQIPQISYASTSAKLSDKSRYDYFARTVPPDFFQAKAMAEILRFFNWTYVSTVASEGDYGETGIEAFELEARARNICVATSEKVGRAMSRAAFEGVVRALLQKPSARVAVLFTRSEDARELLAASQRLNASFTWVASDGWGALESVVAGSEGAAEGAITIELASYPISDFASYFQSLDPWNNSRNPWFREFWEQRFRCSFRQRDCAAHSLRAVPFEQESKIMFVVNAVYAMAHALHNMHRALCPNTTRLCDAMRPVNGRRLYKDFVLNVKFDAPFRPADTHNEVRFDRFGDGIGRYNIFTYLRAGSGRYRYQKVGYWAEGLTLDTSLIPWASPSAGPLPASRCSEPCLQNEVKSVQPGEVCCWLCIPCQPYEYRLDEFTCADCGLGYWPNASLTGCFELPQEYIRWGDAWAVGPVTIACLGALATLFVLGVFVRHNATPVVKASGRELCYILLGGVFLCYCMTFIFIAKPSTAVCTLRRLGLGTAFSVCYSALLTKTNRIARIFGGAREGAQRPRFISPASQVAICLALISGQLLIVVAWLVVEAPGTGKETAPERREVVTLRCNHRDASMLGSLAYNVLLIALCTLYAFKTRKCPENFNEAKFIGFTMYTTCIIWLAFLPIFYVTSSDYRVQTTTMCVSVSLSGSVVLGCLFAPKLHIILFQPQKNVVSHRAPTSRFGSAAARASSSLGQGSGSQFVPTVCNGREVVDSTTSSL

In the case of `CC1(C)CCc2cc(OC[C@@H]3Cn4ccc(=O)nc4O3)ccc21` [SAR218645, (S)-2-(1,1-dimethyl-indan-5-yloxymethyl)-2,3-dihydro-oxazolo[3,2-a]pyrimidin-7-one], the “effect on glutamate response” value in assay [1] was “leftward shift”. Besides, the “effect on glutamate-induced activation” value in assay [2] (10 μM SAR218645) and in assay [3] (10 μM SAR218645) was “no effect” each time. Moreover, the “calcium response to compound alone” value in assay [2] (SAR218645 alone) and in assay [3] (SAR218645 alone) was “did not elicit a calcium response” in each case. Further, the “inhibition of radioligand binding, panel” value in assay [4] was “no interaction”. In addition, in assay [5] (0.01, 0.03 and 0.1 mg/kg po, coadministered with MK-801 (0.0125 mg/kg, ip)), the “effect on preferential investigation of the novel object” value is listed as “significantly restored”. The compound further registered a Minimal active dose in assay [5] (dose-range 0.01–1, po, Swiss mice) of 0.01 mg/kg.

These data come from article PMC5062470, “The mGluR2 positive allosteric modulator, SAR218645, improves memory and attention deficits in translational models of cognitive symptoms associated with schizophrenia” (Scientific Reports, 2016).
